Reference: US20240270810A1, “PREPARATION AND APPLICATION OF POLYPEPTIDE” (GUANGDONG RAYNOVENT BIOTECH CO., LTD., priority 2021, published 2024)
*1 amine or outer side, *2 acyl side, *3 side chain or, on linkers, in order; H or OH if unused. Where a SMILES comes first, the peptide text is derived from it. Bridges are numbered along the chain shown (N, C = ends). [ ]: non-standard residue; d: D form. X1 = O=C(O)CCCCCCCCCCCCCCCCCCC(=O)N[C@@H](CCC(=O)NCCOCCOCC(=O)NCCOCCOCC(=O)N[C@@H](CCC(=O)[*:1])C(=O)[*:2])C(=O)O; Aib = CC(C)(N)C(=O)O

What was measured:
GLP-1R = biological target: T1, GLP-1R (Homo sapiens, UniProt P43220); assay: In vitro GLP-1R agonistic activity test (cAMP kit); type: cell-based; conditions: HEK293 host cells
T1 construct: host or cells: HEK293
T1 sequence (P43220 24-463, species assumed): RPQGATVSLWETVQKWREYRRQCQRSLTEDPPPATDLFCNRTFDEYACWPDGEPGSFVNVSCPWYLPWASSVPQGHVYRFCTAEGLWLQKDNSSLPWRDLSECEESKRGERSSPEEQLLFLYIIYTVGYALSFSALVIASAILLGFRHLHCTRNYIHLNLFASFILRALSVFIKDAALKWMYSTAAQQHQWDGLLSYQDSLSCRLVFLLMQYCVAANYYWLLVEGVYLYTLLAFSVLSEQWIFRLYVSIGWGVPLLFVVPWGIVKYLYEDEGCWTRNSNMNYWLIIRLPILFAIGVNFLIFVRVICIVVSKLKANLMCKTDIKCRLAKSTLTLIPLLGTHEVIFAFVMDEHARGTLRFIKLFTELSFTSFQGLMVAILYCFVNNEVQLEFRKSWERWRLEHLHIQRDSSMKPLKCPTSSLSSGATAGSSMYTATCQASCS
Description: (§1) The cell lines were constructed by Wuxi […] (Shanghai) Co., Ltd. See details in Table 1 below. [table] [table] The test compounds were diluted at a 4-fold dilution factor in 10 points, starting from an initial concentration of 30 μM. The dilution was carried out by Bravo. • 1) 100 nL of compounds were transferred to an OptiPlate-384 plate by Echo. • 2) The OptiPlate-384 plate was centrifuged at 1000 rpm for 5 s. • 1) A GLP-1R/GIPR cell cryovial was placed in warm water at 37° C. for rapid thawing. • 2) The cell suspension was transferred into a 15 mL Transfer centrifugal tube and rinsed with 10 mL of HBSS gently. • 3) The centrifugal tube was centrifuged at 1000 rpm at room temperature for 1 min. • 4) The supernatant was discarded. • 5) The bottom cells were gently dispersed, then gently rinsed with 10 mL of HBSS, the centrifugal tube was centrifuged to settle the cells, and finally the cells were resuspended in an experimental buffer. • 6) Cell density and viability were measured by Vi-cell. • 7) The GLP-1R/GIPR cells were diluted with the experimental buffer to a concentration of 2.0*10^5/mL. • 8) […] of the diluted cell suspension was transferred into the OptiPlate-384 plate. • 9) Incubation was performed at room temperature for 30 min. • 1) 10 μL of 800 nM gradient diluted cAMP standard was added into the empty wells of the OptiPlate-384 plate. • 2) 10 μL of cAMP assay reagent was added. • 3) The OptiPlate-384 plate was covered with TopSeal-A film and incubated at room temperature for 60 min. The TopSeal-A film was removed, and readout was performed on En Vision.

GIPR = biological target: T2, GIPR (Homo sapiens, UniProt P48546); assay: In vitro GIPR agonistic activity test (cAMP kit); type: cell-based; conditions: CHO host cells
T2 construct: host or cells: CHO
T2 sequence (P48546 22-466): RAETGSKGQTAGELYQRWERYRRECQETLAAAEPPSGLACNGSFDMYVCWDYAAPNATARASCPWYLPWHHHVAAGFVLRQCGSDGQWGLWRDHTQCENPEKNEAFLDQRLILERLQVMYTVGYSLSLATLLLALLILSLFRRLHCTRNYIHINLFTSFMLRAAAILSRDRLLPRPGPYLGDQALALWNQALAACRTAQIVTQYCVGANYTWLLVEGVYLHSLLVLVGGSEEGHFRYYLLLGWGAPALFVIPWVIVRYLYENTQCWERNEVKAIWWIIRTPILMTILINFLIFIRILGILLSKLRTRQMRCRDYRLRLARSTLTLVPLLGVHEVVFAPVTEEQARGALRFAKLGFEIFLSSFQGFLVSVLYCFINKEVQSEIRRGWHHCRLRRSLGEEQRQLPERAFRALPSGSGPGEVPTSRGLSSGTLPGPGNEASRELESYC
Description: as §1, with “[table] [table]” left out

EC50 (GLP-1R; without 1% HSA) | EC50 (GIPR; without 1% HSA) | EC50 (GLP-1R; with 1% HSA) | EC50 (GIPR; with 1% HSA) | Compound
0.54 nM | 1.07 nM | 14 nM | – | CC[C@H](C)[C@H](NC(=O)[C@H](CC(C)C)NC(=O)[C@H](Cc1c[nH]c2ccccc12)NC(=O)[C@@H]1CCCCNC(=O)CN(C(=O)COCCOCCNC(=O)COCCOCCNC(=O)CC[C@H](NC(=O)CCCCCCCCCCCCCCCCCCC(=O)O)C(=O)O)CC(=O)NCCCC[C@H](NC(=O)[C@H](CCC(N)=O)NC(=O)[C@H](C)NC(=O)[C@@H](NC(=O)[C@H](CCCCN)NC(=O)[C@H](CC(=O)O)NC(=O)[C@H](CC(C)C)NC(=O)C(C)(C)NC(=O)[C@@H](NC(=O)[C@H](CO)NC(=O)[C@H](Cc2ccc(O)cc2)NC(=O)[C@H](CC(=O)O)NC(=O)[C@H](CO)NC(=O)[C@@H](NC(=O)[C@H](Cc2ccccc2)NC(=O)[C@@H](NC(=O)CNC(=O)[C@H](CCC(=O)O)NC(=O)C(C)(C)NC(=O)[C@@H](N)Cc2ccc(O)cc2)[C@@H](C)O)[C@@H](C)O)[C@@H](C)CC)[C@@H](C)CC)C(=O)N[C@@H](C)C(=O)N[C@@H](Cc2ccccc2)C(=O)N[C@@H]([C@@H](C)CC)C(=O)N1)C(=O)N[C@@H](C)C(=O)NCC(=O)NCC(=O)N1CCC[C@H]1C(=O)N[C@@H](CO)C(=O)N[C@@H](CO)C(=O)NCC(=O)N[C@@H](C)C(=O)N1CCC[C@H]1C(=O)N1CCC[C@H]1C(=O)N1CCC[C@H]1C(=O)N[C@@H](CO)C(N)=O [WX-003]
0.024 nM | 0.17 nM | – | – | CC[C@H](C)[C@H](NC(=O)[C@H](CC(C)C)NC(=O)[C@H](Cc1c[nH]c2ccccc12)NC(=O)[C@H](CCC(=O)O)NC(=O)[C@@H](NC(=O)[C@H](Cc1ccccc1)NC(=O)[C@H](C)NC(=O)[C@@H]1CCCCNC(=O)CN(C(=O)COCCOCCNC(=O)COCCOCCNC(=O)CC[C@H](NC(=O)CCCCCCCCCCCCCCCCC(=O)O)C(=O)O)CC(=O)NCCCC[C@H](NC(=O)[C@H](CCCCN)NC(=O)[C@H](CC(=O)O)NC(=O)[C@H](CC(C)C)NC(=O)C(C)(C)NC(=O)[C@@H](NC(=O)[C@H](CO)NC(=O)[C@H](Cc2ccc(O)cc2)NC(=O)[C@H](CC(=O)O)NC(=O)[C@H](CO)NC(=O)[C@@H](NC(=O)[C@H](Cc2ccccc2)NC(=O)[C@@H](NC(=O)CNC(=O)[C@H](CCC(=O)O)NC(=O)C(C)(C)NC(=O)[C@@H](N)Cc2ccc(O)cc2)[C@@H](C)O)[C@@H](C)O)[C@@H](C)CC)C(=O)N[C@@H](C)C(=O)N[C@@H](CCC(N)=O)C(=O)N1)C(C)C)C(=O)N[C@@H](C)C(=O)NCC(=O)NCC(=O)N1CCC[C@H]1C(=O)N[C@@H](CO)C(=O)N[C@@H](CO)C(=O)NCC(=O)N[C@@H](C)C(=O)N1CCC[C@H]1C(=O)N1CCC[C@H]1C(=O)N1CCC[C@H]1C(=O)N[C@@H](CO)C(N)=O [WX-012]
0.19 nM | 0.43 nM | 31.3 nM | 12.5 nM | CC[C@H](C)[C@H](NC(=O)[C@H](CC(C)C)NC(=O)[C@H](Cc1c[nH]c2ccccc12)NC(=O)[C@@H]1CCCCNC(=O)CN(C(=O)COCCOCCNC(=O)COCCOCCNC(=O)CC[C@H](NC(=O)CCCCCCCCCCCCCCCCCCC(=O)O)C(=O)O)CC(=O)NCCCC[C@H](NC(=O)[C@H](CCC(N)=O)NC(=O)[C@H](C)NC(=O)[C@@H](NC(=O)[C@H](CCCCN)NC(=O)[C@H](CC(=O)O)NC(=O)[C@H](CC(C)C)NC(=O)C(C)(C)NC(=O)[C@@H](NC(=O)[C@H](CO)NC(=O)[C@H](Cc2ccc(O)cc2)NC(=O)[C@H](CC(=O)O)NC(=O)[C@H](CO)NC(=O)[C@@H](NC(=O)[C@H](Cc2ccccc2)NC(=O)[C@@H](NC(=O)CNC(=O)[C@H](CCC(=O)O)NC(=O)C(C)(C)NC(=O)[C@@H](N)Cc2ccc(O)cc2)[C@@H](C)O)[C@@H](C)O)[C@@H](C)CC)[C@@H](C)CC)C(=O)N[C@@H](CCC(=O)O)C(=O)N[C@@H](Cc2ccccc2)C(=O)N[C@@H](C(C)C)C(=O)N1)C(=O)N[C@@H](C)C(=O)NCC(=O)NCC(=O)N1CCC[C@H]1C(=O)N[C@@H](CO)C(=O)N[C@@H](CO)C(=O)NCC(=O)N[C@@H](C)C(=O)N1CCC[C@H]1C(=O)N1CCC[C@H]1C(=O)N1CCC[C@H]1C(=O)N[C@@H](CO)C(N)=O [WX-002]
1.86 nM | 1.36 nM | 84.3 nM | 21.4 nM | CC[C@H](C)[C@H](NC(=O)[C@H](CC(C)C)NC(=O)[C@H](Cc1c[nH]c2ccccc12)NC(=O)[C@@H]1CCCCNC(=O)CN(C(=O)COCCOCCNC(=O)COCCOCCNC(=O)CC[C@H](NC(=O)CCCCCCCCCCCCCCCCCCC(=O)O)C(=O)O)CC(=O)NCCCC[C@H](NC(=O)[C@H](CCC(N)=O)NC(=O)[C@H](C)NC(=O)[C@@H](NC(=O)[C@H](CCCCN)NC(=O)[C@H](CC(=O)O)NC(=O)[C@H](CC(C)C)NC(=O)C(C)(C)NC(=O)[C@@H](NC(=O)[C@H](CO)NC(=O)[C@H](Cc2ccc(O)cc2)NC(=O)[C@H](CC(=O)O)NC(=O)[C@H](CO)NC(=O)[C@@H](NC(=O)[C@H](Cc2ccccc2)NC(=O)[C@@H](NC(=O)CNC(=O)[C@H](CCC(=O)O)NC(=O)C(C)(C)NC(=O)[C@@H](N)Cc2ccc(O)cc2)[C@@H](C)O)[C@@H](C)O)[C@@H](C)CC)[C@@H](C)CC)C(=O)N[C@@H](C)C(=O)N[C@@H](Cc2ccccc2)C(=O)N[C@@H](C(C)C)C(=O)N1)C(=O)N[C@@H](C)C(=O)NCC(=O)NCC(=O)N1CCC[C@H]1C(=O)N[C@@H](CO)C(=O)N[C@@H](CO)C(=O)NCC(=O)N[C@@H](C)C(=O)N1CCC[C@H]1C(=O)N1CCC[C@H]1C(=O)N1CCC[C@H]1C(=O)N[C@@H](CO)C(N)=O [WX-004]

Compound | EC50 (GLP-1R; without 1% HSA) | EC50 (GIPR; without 1% HSA) | EC50 (GLP-1R; with 1% HSA) | EC50 (GIPR; with 1% HSA)
CC[C@H](C)[C@H](NC(=O)[C@H](CC(C)C)NC(=O)[C@H](Cc1c[nH]c2ccccc12)NC(=O)[C@H](CCC(=O)O)NC(=O)[C@@H](NC(=O)[C@H](Cc1ccccc1)NC(=O)[C@H](C)NC(=O)[C@@H]1CCCCNC(=O)[C@@H](NC(=O)COCCOCCNC(=O)COCCOCCNC(=O)CC[C@H](NC(=O)CCCCCCCCCCCCCCCCCCC(=O)O)C(=O)O)CCC(=O)NCCCC[C@H](NC(=O)[C@H](CCCCN)NC(=O)[C@H](CC(=O)O)NC(=O)[C@H](CC(C)C)NC(=O)C(C)(C)NC(=O)[C@@H](NC(=O)[C@H](CO)NC(=O)[C@H](Cc2ccc(O)cc2)NC(=O)[C@H](CC(=O)O)NC(=O)[C@H](CO)NC(=O)[C@@H](NC(=O)[C@H](Cc2ccccc2)NC(=O)[C@@H](NC(=O)CNC(=O)[C@H](CCC(=O)O)NC(=O)C(C)(C)NC(=O)[C@@H](N)Cc2ccc(O)cc2)[C@@H](C)O)[C@@H](C)O)[C@@H](C)CC)C(=O)N[C@@H](C)C(=O)N[C@@H](CCC(N)=O)C(=O)N1)C(C)C)C(=O)N[C@@H](C)C(=O)NCC(=O)NCC(=O)N1CCC[C@H]1C(=O)N[C@@H](CO)C(=O)N[C@@H](CO)C(=O)NCC(=O)N[C@@H](C)C(=O)N1CCC[C@H]1C(=O)N1CCC[C@H]1C(=O)N1CCC[C@H]1C(=O)N[C@@H](CO)C(N)=O [WX-011] (H-Y[Aib]EGTFTSDYSI[Aib]LDKKAQKAFVEWLIAGGPSSGAPPPS-NH2; linker 17-20 via X1) | 0.018 nM | 0.25 nM | – | –
